According to patent US20230210939A1, “CYCLIC PEPTIDE COMPOUNDS AND METHODS OF USE” (priority 2020, published 2023):
Positions of bridges follow the written chain, without caps; N, C: chain ends. Non-standard residues stand in square brackets, D forms with d. Residues, ends and D or L forms follow the SMILES beside them. *: point of attachment. Picolinoyl = O=C(c1ccccn1)*; Aib = CC(C)(N)C(=O)O

Columns and labels:
[1] = system: TNF-α content in conditioned media of LPS-treated BV2 microglial cells; experiment: In vitro TNF-α inhibitory activity in LPS-treated BV2 microglial cells; format: cell-based; conditions: compound 45 min before LPS, 24 h incubation, TNF-α in supernatant, read-out: IC50 for reducing LPS-induced TNF-α content by half
Method: To measure the efficacy of the biological activity of Compound 1, an in vitro assay was employed to measure TNF-α content in conditioned media of cells treated with lipopolysaccharide (LPS) and different concentrations of Compound 1. 1 mg of Compound 1 peptide compound was added to 3.333 mL of physiological saline to make a 189 μM peptide solution which is sterilized by filtration through a 0.22 μm membrane filter. For treatment of cells, threefold serial dilutions were made, yielding concentrations of 189, 63, 21, 7, 2.3, and 0.76 μM peptide solution.
BV2 cells were recovered and passaged more than 3 times. 1.2×10^6 BV2 microglial cells in good growth state and in the logarithmic growth phase were diluted to […] cells/mL with DMEM medium containing 10% FBS, and 400 μL of cell suspension was inoculated into each well of a 48-well cell culture plate. […]

[2] = system: TNF-α content in the blood of LPS-treated ICR mice; experiment: In vivo TNF-α inhibitory activity in LPS-treated mice; conditions: ICR male mice, IV compound 30 min before IV LPS 5 μg/kg, blood collected 1.5 hours after LPS
Method: To measure the efficacy of the biological activity of Compound 1, an in vivo assay was employed to measure TNF-α content in the blood of whole mice treated with lipopolysaccharide (LPS) and different concentrations of Compound 1. 56 ICR male mice, 12-14 g, were acclimated to the animal facility for 7 days and were then randomized into 8 groups with 7 mice/group to receive doses of 0, 0.001, 0.003, 0.01, 0.03, 0.1, 0.3, and 1.0 mg/kg of compound. Each dose group received intravenous (IV) injection of different concentrations of Compound 1 peptide solution at a dosing volume of 10 mL/kg. 30 min later, IV LPS at a dose of 5 μg/kg and at a volume of 10 ml/kg was administered. 1.5 hours after administration of LPS, whole blood was collected from the orbit of ICR mice, centrifuged at 4000 rpm for 10 min, and the supernatant was collected and used for TNF-α content detection from each of the different Compound 1 doses. (TNF-α detection kit, Unitech biological item number: 70-EK282/3-96).

## CC(C)CC1NC(=O)C(CC(C)C)NC(=O)C(CCCNC(=N)N)NC(=O)C(CCCCN)NC(=O)C(C)(C)NC(=O)C(CC(C)C)NC(=O)C(CCCCN)NC(=O)C(CCCNC(=N)N)NC(=O)C(CC(C)C)NC(=O)C(NC(=O)C(CO)NC(=O)C(C)NC(=O)c2ccccn2)CSSCC(C(N)=O)NC1=O (stereo not drawn) [Compound 1, picolinyl-Ala-Ser-cyclo[Cys-LRKL-Aib-KRLL-Cys]-NH2] (Picolinoyl-ASCLRKL[Aib]KRLLC-NH2; disulfide 3-13; configuration not given here)
[1]
  IC50: ~1020 nM
[2]
  ED50 (Effective Dose at which a 50% reduction in blood TNF-α content was found): 0.045 mg/kg
